Test results taken from patent publication US6232089A, “CD23 processing enzyme preparation” (SmithKline Beecham Corporation, priority 1998, dated 2001).

What was measured:
[1] = test system: solubilized membrane proteins from BJAB cells; test: Photolabeling of Superose 12 column fractions of solubilized membrane proteins, SDS-PAGE; type: binding; details: 1 uM compound 3, long UV, 1 min, Superose 12 fractions, single band
Protocol: Compound 3 is an inhibitor of CD23 processing in membranes with an IC50 of about 1-3 uM. Compound 3 (the synthesis of which is described in the Synthetic Examples section as Example 9), is [N-[4-N'-Hydroxyamino-2-(R)-2-(2-methylpropyl)succinyl]-S-4-azidophenylalanine-N"-(6-biotinoylaminohexyl)amide]. Compound 3 was prepared for use as a photolabeling agents as follows. [drawing 1]
Column fractions from a Superose 12 column of solubilized membrane proteins from BJAB cells were photolabeled with 1 uM compound 3 using a Sunlit phosphor lamp at long UV for 1 min. […] Active fractions from RPMI 8866 fractionations are similarly photolabeled.
Fractions were concentrated, photolabeled as described, applied to 12% SDS-PAGE, blotted to PVDF and photolabeled material detected with streptavidin-horseradish peroxidase (streptavidin-HRP) using ECL (Amersham) methodology. Fraction "0" indicates the photolabeling observed in an unfractionated sample. The 45 kDa MW marker protein migrated with an elution volume corresponding to fractions 17 or 18. The fraction sizes are not the same as FIG. 7.

[2] = test system: CD23 processing enzyme; test: Membrane CD23 cleavage activity assay (sCD23 release from plasma membranes of RPMI 8866 cells); type: biochemical, human; details: membranes; read-out: IC50 for inhibition of CD23 processing (production of sCD23)
Protocol: Membrane CD23 cleavage activity assay:
Plasma membranes from RPMI 8866 cells, a human Epstein-Barr virus transformed B-cell (Sarfati et al., Immunology 60 (1987) 539-547), or a similar cell line expressing high levels of CD23 are purified using an aqueous extraction method. Cells resuspended in homogenization buffer (20 mM HEPES pH 7.4, 150 mM NaCl, 1.5 mM MgCl2, 1 mM DTT) are broken by N2 cavitation in a Parr bomb and the plasma membrane fraction mixed with other membranes recovered by centrifugation at 10,000×g. The light pellet is resuspended in 0.2 M potassium phosphate, pH 7.2 using 2 ml per 1-3 g wet cells and the nuclear pellet is discarded. The membranes are further fractionated by partitioning between Dextran 500 (6.4% w/w) and polyethylene glycol (PEG) 5000 (6.4% w/w) at 0.25 M sucrose in a total of 16 g per 10-15 mg membrane proteins (Morre and Morre, BioTechniques 7, 946-957 (1989)). The phases are separated by brief centrifugation at 1000×g and the PEG (upper) phase is collected, diluted 3-5 fold with 20 mM potassium phosphate buffer pH 7.4, and centrifuged at 100,000×g to recover membranes in that phase. The pellet is resuspended in phosphate-buffered saline and consists of 3-4 fold enriched plasma membranes as well as some other cell membranes (e.g. lysosomes, Golgi). The membranes are aliquoted and stored at -80° C. Fractionation at 6.6% Dextran/PEG yields plasma membranes enriched 10-fold.
The fractionated membranes are incubated at 37° C. for times up to 4 hours to produce fragments of CD23 which are separated from the membrane after quenching the assay with 5 uM compound 1 by centrifugation at 10,000×g. These CD23 fragments are consistent with those reported (Letellier et al, J Exp. Med. 172, 693-700 (1990)): MW, app 36-37 kDa as determined by 12% sodium dodecylsulfate-polyacrylamide electrophoresis (SDS-PAGE) of N-terminal sequence QKSQ; MW, app 33 kDa with N-terminal sequence LKSQ. Additional bands not sequenced: MW, app 28-29 kDa and a doublet at 25-26 kDa. These are detected by Western blot of the total protein in the incubation using a polyclonal antibody such as the polyclonal anti-CD23 antibody in The Binding Site (Birmingham, UK) enzyme-linked immunoassay (EIA) Bindazyme kit for the determination of soluble CD23. Following removal of the membrane by centrifugation or filtration in 0.2 micron filter plates (Durapore, Millpore), sCD23 can also be determined using the EIA kit from The Binding Site or a similar one utilizing MHM6 anti-CD23 mAb (Rowe et al., Int. J. Cancer, 29, 373-382 (1982)) or another anti-CD23 mAb as the capture antibody in a sandwich EIA. […] Samples were incubated at 37° C. for the varying times, quenched with compound 1, applied to 12% SDS-PAGE, and Western blotting on PVDF (Bio-Rad) membrane performed using standard methodology with a combination of BD4 (prepared as described in Biological example 2) and a polyclonal antibody which recognizes all soluble fragments as the primary antibody. The blot was developed by ECL, scanned using a BioImage system and quantitated using the Visage analysis package.
Inhibition of CD23 processing can also be determined by Western blot or by the 5 EIA (Elisa) method. The amount of soluble CD23 made by 0.5-5 ug membrane protein is measured either by quantitation of the Western blot as described using a Millipore BioImage system, or by EIA and compared to the amount made in the presence of various concentrations of inhibitors. Inhibitors are prepared in solutions of water or dimethylsulfoxide (DMSO) and the final DMSO concentration is not more than 2%. The enzyme activity of CD23 processing is inhibited by 1,10-phenanthroline (1 mM), and not by 1,7-phenanthroline (1 mM), PMSF (1 mM), E-64 (10 uM), pepstatin (10 uM), leupeptin (10 uM), or tosyl-leucylchloroketone (100 uM), and weakly by phosphoramidon (40% inhibition at 100 uM). The enzyme can heretofore best be described as a metalloprotease rather than a serine, cysteine or acid protease. […]

[3] = test system: CD23 processing enzyme; test: Photolabeling of membranes or solubilized membrane proteins containing the CD23 processing enzyme, 12% SDS-PAGE / 2-dimensional gel electrophoresis; type: binding; details: 2-dimensional gel electrophoresis; 0.1 to 0.3 uM compound 4 or 1 uM compound 3
Protocol: Compound 4 (Synthetic Example 17), Compound 5 (Synthetic Example 17a), Compound 6 (Synthetic Example 25), and Compound 7 (Synthetic Example 27) can also be used to photolabel membranes or solubilized membrane proteins containing the CD23 processing enzyme, using the same method described for compound 3. Analysis by 12% SDS-PAGE and ECL detection of biotinylated protein, using streptavidin-HRP detects several bands in the molecular weight range 50-65 kDa.
Up to 200 ug of membrane proteins in PBS were solubilized in 0.1 % NP-40 and photolabeled with 0.1 to 0.3 uM compound 4 or 1 uM compound 3 as described for compound 3 above. The sample was then dialyzed vs. 10 mM potassium phosphate pH 7.5, 0.1% NP-40, concentrated in a Centricon 10 (Amicon, Beverly Mass.), then made 8 M in urea, 2% in Triton X-100, 0. 8% in Pharmalyte 3-10 (Pharmacia) and 50 mM in DTT. After electrophoresis in both dimensions, the proteins were blotted to PVDF, and biotinylated proteins detected with streptavidin-HRP as described above. The majority of the minor biotinylated spots observed were in the molecular weight range 50-65 kDa and were acidic proteins with pH in the range 4.5-6.0.

With CC(C)C[C@H](CC(=O)NO)C(=O)N[C@@H](Cc1ccc(N=[N+]=[N-])cc1)C(=O)NCCCCCCNC(=O)CCCC[C@@H]1SC[C@@H]2NC(=O)N[C@@H]21 [Compound 3, N-[4-N'-Hydroxyamino-2-(R)-2-(2-methylpropyl)succinyl]-S-4-azidophenylalanine-N"-(6-biotinoylaminohexyl)amide] the “MW, app of photolabeled band” value [1] was 45 kDa, the IC50 [2] was 1000 to 3000 nM and the “molecular weight range of majority of minor biotinylated spots” value [3] was 50-65 kDa. The “pH range of minor biotinylated spots (acidic proteins)” value [3] was 4.5-6.0.
